Experiments:
[1] = test system: pigweed (Amaranthus retroflexus); test: Test C postemergence; type: in vivo; settings: Amaranthus retroflexus, post-emergence, 336 h, Postemergence, scale 0 to 100, read-out: Plant response rating, Pigweed; for pest or weed control at 31 g/ha: 31 g ai/ha; for pest or weed control at 62 g/ha: 62 g ai/ha; for pest or weed control at 125 g/ha: 125 g ai/ha; for pest or weed control at 250 g/ha: 250 g ai/ha
Outline: (§1)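 Visual ratings were made 13-15 days after treatment in the greenhouse, scored 0-100 against controls, where 100 means complete control. Treatments used a surfactant-containing non-phytotoxic solvent formulation, applied preemergence to seeds in loam-sand soil or postemergence to 2-18 cm plants (1-4 leaves) in peat-based medium.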

kochia (Kochia scoparia) [2] = test: Test C postemergence; type: in vivo; settings: Bassia scoparia, post-emergence, Postemergence, scale 0 to 100, read-out: Plant response rating, Kochia; for pest or weed control at 31 g/ha: 31 g ai/ha; for pest or weed control at 62 g/ha: 62 g ai/ha; for pest or weed control at 125 g/ha: 125 g ai/ha; for pest or weed control at 250 g/ha: 250 g ai/ha
Outline: as §1

rice (Oryza sativa) = test: Test B flooded paddy; type: in vivo; settings: Oryza sativa, 336 h; 250 g ai/ha, Flood, 13 to 15 days, scale 0 (no effect) to 100 (complete control); read-out: Plant response rating, Rice
Outline: (§2)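 Flooded 3 cm over soil; compound into paddy water; depth kept constant. Greenhouse 13–15 d.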

[3] = test system: ducksalad (Heteranthera limosa); test: Test B flooded paddy; type: in vivo; settings: Heteranthera limosa, 336 h; 250 g ai/ha, Flood, 13 to 15 days, scale 0 (no effect) to 100 (complete control); read-out: Plant response rating, Ducksalad
Outline: as §2

[4] = test system: sedge, umbrella (small-flower umbrella sedge, Cyperus difformis); test: Test B flooded paddy; type: in vivo; settings: Cyperus difformis, 336 h; 250 g ai/ha, Flood, 13 to 15 days, scale 0 (no effect) to 100 (complete control); read-out: Plant response rating, Sedge, Umbrella
Outline: as §2

[5] = test system: barnyardgrass (Echinochloa crus-galli); test: Test B flooded paddy; type: in vivo; settings: Echinochloa crus-galli, 336 h; 250 g ai/ha, Flood, 13 to 15 days, scale 0 (no effect) to 100 (complete control); read-out: Plant response rating, Barnyardgrass
Outline: as §2

[6] = test system: pigweed (Amaranthus retroflexus); test: Test A preemergence; type: in vivo; settings: Amaranthus retroflexus, pre-emergence, 240 h, 1000 g ai/ha, 0 to 100 scale, read-out: Plant response rating, Pigweed
Outline: (§3)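 Scoring: eye-based comparison with untreated controls, 0 for no effect through 100 for complete control, at about day 10. Treatments: directed soil spray preemergence; foliar spray postemergence on 2–10 cm plants at the one- to two-leaf stage. Medium: loam soil with sand.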

[7] = test system: Italian ryegrass (Lolium multiflorum); test: Test A preemergence; type: in vivo; settings: Lolium multiflorum, pre-emergence, 240 h, 1000 g ai/ha, 0 to 100 scale, read-out: Plant response rating, Ryegrass, Italian
Outline: as §3

[8] = test system: barnyardgrass (Echinochloa crus-galli); test: Test A preemergence; type: in vivo; settings: Echinochloa crus-galli, pre-emergence, 240 h, 1000 g ai/ha, 0 to 100 scale, read-out: Plant response rating, Barnyardgrass
Outline: as §3

kochia (Kochia scoparia) [9] = test: Test A preemergence; type: in vivo; settings: Bassia scoparia, pre-emergence, 240 h, 1000 g ai/ha, 0 to 100 scale, read-out: Plant response rating, Kochia
Outline: as §3

[10] = test system: giant foxtail (Setaria faberii); test: Test A preemergence; type: in vivo; settings: Setaria faberi, pre-emergence, 240 h, 1000 g ai/ha, 0 to 100 scale, read-out: Plant response rating, Foxtail, Giant
Outline: as §3

[11] = test system: ragweed (common ragweed, Ambrosia elatior); test: Test A preemergence; type: in vivo; settings: Ambrosia artemisiifolia, pre-emergence, 240 h, 1000 g ai/ha, 0 to 100 scale, read-out: Plant response rating, Ragweed
Outline: as §3

[12] = test system: wheat (Triticum aestivum); test: Test A postemergence; type: in vivo; settings: Triticum aestivum, post-emergence, 240 h, 1000 g ai/ha, 0 to 100 scale, read-out: Plant response rating, Wheat
Outline: as §3

[13] = test system: pigweed (Amaranthus retroflexus); test: Test A postemergence; type: in vivo; settings: Amaranthus retroflexus, post-emergence, 240 h, 1000 g ai/ha, 0 to 100 scale, read-out: Plant response rating, Pigweed
Outline: as §3

[14] = test system: galium (catchweed bedstraw, Galium aparine); test: Test A postemergence; type: in vivo; settings: Galium, post-emergence, 240 h, 1000 g ai/ha, 0 to 100 scale, read-out: Plant response rating, Galium
Outline: as §3

[15] = test system: Italian ryegrass (Lolium multiflorum); test: Test A postemergence; type: in vivo; settings: Lolium multiflorum, post-emergence, 240 h, 1000 g ai/ha, 0 to 100 scale, read-out: Plant response rating, Ryegrass, Italian
Outline: as §3

corn (Zea mays) = test: Test A postemergence; type: in vivo; settings: Zea mays, post-emergence, 240 h, 1000 g ai/ha, 0 to 100 scale
Outline: as §3

[16] = test system: barnyardgrass (Echinochloa crus-galli); test: Test A postemergence; type: in vivo; settings: Echinochloa crus-galli, post-emergence, 240 h, 1000 g ai/ha, 0 to 100 scale, 0 no effect, 100 complete control, read-out: Plant response rating, Barnyardgrass
Outline: as §3

[17] = test system: blackgrass (Alopecurus myosuroides); test: Test A postemergence; type: in vivo; settings: Alopecurus myosuroides, post-emergence, 240 h, 1000 g ai/ha, 0 to 100 scale, read-out: Plant response rating, Blackgrass
Outline: as §3

kochia (Kochia scoparia) [18] = test: Test A postemergence; type: in vivo; settings: Bassia scoparia, post-emergence, 240 h, 1000 g ai/ha, 0 to 100 scale, read-out: Plant response rating, Kochia
Outline: as §3

[19] = test system: giant foxtail (Setaria faberii); test: Test A postemergence; type: in vivo; settings: Setaria faberi, post-emergence, 240 h, 1000 g ai/ha, 0 to 100 scale, read-out: Plant response rating, Foxtail, Giant
Outline: as §3

[20] = test system: ragweed (common ragweed, Ambrosia elatior); test: Test A postemergence; type: in vivo; settings: Ambrosia artemisiifolia, post-emergence, 240 h, 1000 g ai/ha, 0 to 100 scale, read-out: Plant response rating, Ragweed
Outline: as §3

| melting point | SMILES | pest or weed control at 31 g/ha [1] | pest or weed control at 62 g/ha [1] | pest or weed control at 125 g/ha [1] | pest or weed control at 250 g/ha [1] | pest or weed control at 31 g/ha (kochia (Kochia scoparia) [2]) | pest or weed control at 62 g/ha (kochia (Kochia scoparia) [2]) | pest or weed control at 125 g/ha (kochia (Kochia scoparia) [2]) | pest or weed control at 250 g/ha (kochia (Kochia scoparia) [2]) | plant injury at 250 g/ha (rice (Oryza sativa)) | pest or weed control at 250 g/ha [3] | pest or weed control at 250 g/ha [4] | pest or weed control at 250 g/ha [5] | pest or weed control at 1000 g/ha [6] | pest or weed control at 1000 g/ha [7] | pest or weed control at 1000 g/ha [8] | pest or weed control at 1000 g/ha (kochia (Kochia scoparia) [9]) | pest or weed control at 1000 g/ha [10] | pest or weed control at 1000 g/ha [11] | plant injury at 1000 g/ha [12] | other results |
| --- | --- | --- | --- | --- | --- | --- | --- | --- | --- | --- | --- | --- | --- | --- | --- | --- | --- | --- | --- | --- | --- |
| 166 to 169 °C | Clc1cnc(Oc2cccc(Cl)c2Oc2ncc(Br)cn2)nc1 [Compound 17, 5-bromo-2-[2-chloro-6-[(5-chloro-2-pyrimidinyl)oxy]phenoxy]pyrimidine] | 90% | 95% | 98% | 98% | 90% | 90% | 95% | 95% | 35% | 100% | 100% | 20% | 100% | 100% | 100% | 100% | 100% | 100% | 100% | pest or weed control at 1000 g/ha [13]: 100%; pest or weed control at 1000 g/ha [14]: 100%; pest or weed control at 1000 g/ha [15]: 100%; Corn plant response rating (crop injury, 0 = no effect, 100 = complete kill) at 1000 g/ha (corn (Zea mays)): 100%; pest or weed control at 1000 g/ha [16]: 100%; pest or weed control at 1000 g/ha [17]: 100%; pest or weed control at 1000 g/ha (kochia (Kochia scoparia) [18]): 100%; pest or weed control at 1000 g/ha [19]: 100%; pest or weed control at 1000 g/ha [20]: 90% |
| 113 to 116 °C | Fc1cnc(Oc2c(Br)cccc2Oc2ncc(Cl)cn2)nc1 [Compound 22] | 75% | 85% | 90% | 100% | 45% | 60% | 85% | 90% | 45% | 100% | 98% | 45% | 100% | 90% | 100% | 100% | 100% | 90% | 70% | pest or weed control at 1000 g/ha [13]: 100%; pest or weed control at 1000 g/ha [14]: 90%; pest or weed control at 1000 g/ha [15]: 90%; Corn plant response rating (crop injury, 0 = no effect, 100 = complete kill) at 1000 g/ha (corn (Zea mays)): 70%; pest or weed control at 1000 g/ha [16]: 90%; pest or weed control at 1000 g/ha [17]: 70%; pest or weed control at 1000 g/ha (kochia (Kochia scoparia) [18]): 100%; pest or weed control at 1000 g/ha [19]: 90%; pest or weed control at 1000 g/ha [20]: 90% |
| 141 to 145 °C | Fc1cnc(Oc2c(F)cccc2Oc2ncc(Cl)cn2)nc1 [Compound 23] | 70% | 80% | 95% | 100% | 5% | 70% | 80% | 90% | 60% | 90% | 80% | 60% | 100% | 80% | 100% | 100% | 100% | 100% | 60% | pest or weed control at 1000 g/ha [13]: 100%; pest or weed control at 1000 g/ha [14]: 90%; pest or weed control at 1000 g/ha [15]: 90%; Corn plant response rating (crop injury, 0 = no effect, 100 = complete kill) at 1000 g/ha (corn (Zea mays)): 50%; pest or weed control at 1000 g/ha [16]: 90%; pest or weed control at 1000 g/ha [17]: 80%; pest or weed control at 1000 g/ha (kochia (Kochia scoparia) [18]): 90%; pest or weed control at 1000 g/ha [19]: 90%; pest or weed control at 1000 g/ha [20]: 90% |
| 145 to 148 °C | Fc1cccc(Oc2ncc(Cl)cn2)c1Oc1ncc(Br)cn1 [Compound 27, 5-bromo-2-[2-fluoro-6-[(5-chloro-2-pyrimidinyl)oxy]phenoxy]pyrimidine] | 85% | 90% | 95% | 98% | 40% | 80% | 85% | 95% | 60% | 80% | 85% | 50% | 100% | 70% | 100% | 100% | 100% | 90% | 50% | pest or weed control at 1000 g/ha [13]: 100%; pest or weed control at 1000 g/ha [14]: 90%; pest or weed control at 1000 g/ha [15]: 90%; Corn plant response rating (crop injury, 0 = no effect, 100 = complete kill) at 1000 g/ha (corn (Zea mays)): 40%; pest or weed control at 1000 g/ha [16]: 90%; pest or weed control at 1000 g/ha [17]: 80%; pest or weed control at 1000 g/ha (kochia (Kochia scoparia) [18]): 90%; pest or weed control at 1000 g/ha [19]: 90%; pest or weed control at 1000 g/ha [20]: 80% |
